These results are taken from patent US8637498B2, “Oxopiperazine-azetidine amides and oxodiazepine-azetidine amides as monoacylglycerol lipase inhibitors” (Janssen Pharmaceutica, NV, priority 2010, dated 2014).

The target of one assay is T1, mutant MGL (Homo sapiens, UniProt Q99685, L169S/L176S).
T1 construct: mut-MGLL 11-313 L179S L186S
T1 sequence (Q99685 1-303 L169S/L176S): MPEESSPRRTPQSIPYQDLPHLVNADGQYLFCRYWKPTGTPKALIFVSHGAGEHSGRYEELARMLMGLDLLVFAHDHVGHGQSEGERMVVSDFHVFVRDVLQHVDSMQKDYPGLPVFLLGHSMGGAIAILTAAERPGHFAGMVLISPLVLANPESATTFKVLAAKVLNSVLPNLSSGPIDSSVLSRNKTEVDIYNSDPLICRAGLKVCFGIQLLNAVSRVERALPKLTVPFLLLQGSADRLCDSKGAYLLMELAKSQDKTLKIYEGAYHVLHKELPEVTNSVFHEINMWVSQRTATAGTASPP
The assay can be described thus: MGL ThermoFluor Assay - Mutant. Format: binding. The protocol: The ThermoFluor (TF) assay is a 384-well plate-based binding assay that measures thermal stability of proteins^1,2. The experiments were carried out using instruments available from Johnson & Johnson Pharmaceutical Research & Development, LLC. TF dye used in all experiments was 1,8-ANS (Invitrogen: A-47). Final TF assay conditions used for MGL studies were 0.07 mg/ml of mutant MGL, 100 μM ANS, 200 mM NaCl, 0.001% Tween-20 in 50 mM PIPES (pH=7.0).
Screening compound plates contained 100% DMSO compound solutions at a single concentration. For follow-up concentration-response studies, compounds were arranged in a pre-dispensed plate (Greiner Bio-one: 781280), wherein compounds were serially diluted in 100% DMSO across 11 columns within a series. Columns 12 and 24 were used as DMSO reference and contained no compound. For both single and multiple compound concentration-repsonse experiments, the compound aliquots (46 nL) were robotically predispensed directly into 384-well black assay plates (Abgene: TF-0384/k) using the Hummingbird liquid handler. Following compound dispension, protein and dye solutions were added to achieve the final assay volume of 3 μL. The assay solutions were overlayed with 1 μL of silicone oil (Fluka, type DC 200: 85411) to prevent evaporation.
Bar-coded assay plates were robotically loaded onto a thermostatically controlled PCR-type thermal block and then heated from 40 to 90° C. degrees at a ramp-rate of 1° C./min for all experiments. Fluorescence was measured by continuous illumination with UV light (Hamamatsu LC6), supplied via fiber optics and filtered through a band-pass filter (380-400 nm; >6 OD cutoff). Fluorescence emission of the entire 384-well plate was detected by measuring light intensity using a CCD camera (Sensys, Roper Scientific) filtered to detect 500±25 nm, resulting in simultaneous and independent readings of all 384 wells. A single image with 20-sec exposure time was collected at each temperature, and the sum of the pixel intensity in a given area of the assay plate was recorded vs temperature and fit to standard equations to yield the Tm^1. • 1. Pantoliano, M. W., Petrella, E. C., Kwasnoski, J. D., Lobanov, V. S., Myslik, J., Graf, E., Carver, T., Asel, E., Springer, B. A., Lane, P., and Salemme, F. R. (2001) J Biomol Screen 6, 429-40. • 2. Matulis, D., Kranz, J. K., Salemme, F. R., and Todd, M. J. (2005) Biochemistry 44, 5258-66.
The Kd values for compounds of Formula (Ia) and (Ib) were determined from a fit of the equation to the concentration-response plot of the fractional activity as a function of Tm. For some experiments, quantitative NMR spectroscopy (qNMR) was used to measure concentration of the initial 100% DMSO compound solutions and, using the same fitting method, qKd values were determined.
In general terms: DSF heats the sample and reads unfolding from a dye or from intrinsic fluorescence.

Assay [1] deals with T2, purified wild type MGL (wt-MGLL 6H-11-313) (Homo sapiens, UniProt Q99685).
T2 construct: wt-MGLL 6H-11-313; 6H (hexahistidine) (N)
T2 sequence (Q99685 1-303): T1 sequence (Q99685 1-303 L169S/L176S) with S169L, S176L
In words: MGL Enzyme Activity Assay (wild type MGL, 4MU-B substrate). Format: biochemical. Particulars: wild type MGL 5 nM, 4MU-B 10 μM, 37° C.; read-out: MGL wild type inh IC50. The protocol: All rate-based assays were performed in black 384-well polypropylene PCR microplates (Abgene) in a total volume of 30 μL. Substrate 4-methylumbelliferyl butyrate (4MU-B; Sigma) and either purified mutant MGL (mut-MGLL 11-313 L179S L186S) or purified wild type MGL (wt-MGLL 6H-11-313) were diluted separately into 20 mM PIPES buffer (pH=7.0), containing 150 mM NaCl and 0.001% Tween 20. Compounds of Formula (Ia) and (Ib) were pre-dispensed (50 nL) into the assay plate using a Cartesian Hummingbird prior to adding 4MU-B (25 μL of 1.2× solution to a final concentration of 10 μM) followed by enzyme (5 μL of a 6× solution to a final concentration of 5 nM) to initiate the reaction. Final compound concentrations ranged from 17 to 0.0003 μM. The fluorescence change due to 4MU-B cleavage was monitored with excitation and emission wavelengths of 335 and 440 nm, respectively, and a bandwidth of 10 nm (Safire^2, Tecan) at 37° C. for 5 min.
The IC50 values for compounds of Formula (Ia) or (Ib) were determined using Excel from a fit of the equation to the concentration-response plot of the fractional activity as a function of inhibitor concentration.

Where [2] appears, read: mutant MGL 0.07 mg/ml, 1,8-ANS dye, read-out: MGL mutant ThermoFluor Kd.
[3] abbreviates: mutant MGL, compound concentration measured by qNMR, read-out: MGL mutant ThermoFluor qKd (using qNMR conc.).

Positions count from the first letter of the chain named. Read-outs that look alike come from different tables or passages of the source.

Turning to `O=C(c1sc2cc(C(F)(F)F)ccc2c1Cl)N1CC(N2CCN(c3nccs3)C(=O)C2)C1` [Cpd 11, 4-(1-{[3-Chloro-6-(trifluoromethyl)-1-benzothiophen-2-yl]carbonyl}azetidin-3-yl)-1-(1,3-thiazol-2-yl)piperazin-2-one], the Kd on mutant MGL (setting [2]) is 0.0643 µM. The IC50 (usually the concentration that inhibits the measured activity by half) in assay [1] is less than 0.005 µM.

In the case of `O=C(c1ccc2c(ccn2-c2ccc(F)cc2)c1)N1CC(N2CCN(c3ncccn3)C(=O)C2)C1` [Cpd 4, 4-(1-{[1-(4-Fluorophenyl)-1H-indol-5-yl]carbonyl}azetidin-3-yl)-1-pyrimidin-2-ylpiperazin-2-one], at mutant MGL (setting [3]), the Kd was 0.943 µM. For the same compound, in assay [1], the 50% inhibitory concentration (IC50) was found to be 0.134 µM.

As to `O=C(c1cc2ccc(C(F)(F)F)cc2s1)N1CC(N2CCN(c3ncccn3)CC2=O)C1` [Cpd 23, 4-Pyrimidin-2-yl-1-(1-{[6-(trifluoromethyl)-1-benzothiophen-2-yl]carbonyl}azetidin-3-yl)piperazin-2-one], the Kd on mutant MGL (setting [2]) was 0.714 µM. Also, the concentration for half-maximal inhibition (IC50) in assay [1] turned out to be 0.568 µM.

Turning to `O=C(c1ccc2c(ccn2-c2ccc(F)c(F)c2)c1)N1CC(N2CCN(c3ccccc3)C(=O)C2)C1` [Cpd 15, 4-(1-{[1-(3,4-Difluorophenyl)-1H-indol-5-yl]carbonyl}azetidin-3-yl)-1-phenylpiperazin-2-one], the Kd on mutant MGL (setting [2]) is 1.97 µM. Further, the IC50 in assay [1] was 0.304 µM.

Consider `O=C(c1ccc2c(ccn2-c2ccc(C(F)(F)F)cc2)c1)N1CC(N2CCN(c3ccccc3)C(=O)C2)C1` [Cpd 13, 1-Phenyl-4-[1-({1-[4-(trifluoromethyl)phenyl]-1H-indol-5-yl}carbonyl)azetidin-3-yl]piperazin-2-one], for which the Kd at mutant MGL (setting [2]) came out at 1.35 µM. Besides, the IC50 in assay [1] is 0.908 µM.

In the case of `O=C(c1sc2cc(C(F)(F)F)ccc2c1Cl)N1CC(N2CCC(=O)N(c3ncccn3)CC2)C1` [Cpd 17, 1-(1-{[3-Chloro-6-(trifluoromethyl)-1-benzothiophen-2-yl]carbonyl}azetidin-3-yl)-4-pyrimidin-2-yl-1,4-diazepan-5-one], the Kd at mutant MGL (setting [3]) was found to be 0.0525 µM. Moreover, in assay [1], the concentration for half-maximal inhibition (IC50) was 0.0554 µM.

As for `O=C(c1ccc(-c2ccccc2)cc1)N1CC(N2CCN(c3nccs3)C(=O)C2)C1` [Cpd 18, 4-[1-(Biphenyl-4-ylcarbonyl)azetidin-3-yl]-1-(1,3-thiazol-2-yl)piperazin-2-one], the Kd at mutant MGL (setting [3]) turned out to be 1.37 µM. Besides, the 50% inhibitory concentration (IC50) in assay [1] came out at 1.66 µM.

As to `O=C(c1ccc2c(ccn2-c2ccc(F)cc2)c1)N1CC(N2CCC(=O)N(c3ncccn3)CC2)C1` [Cpd 20, 1-(1-{[1-(4-Fluorophenyl)-1H-indol-5-yl]carbonyl}azetidin-3-yl)-4-pyrimidin-2-yl-1,4-diazepan-5-one], the Kd at mutant MGL (setting [3]) was 0.282 µM. Also, in assay [1], the IC50 is 0.248 µM.

Regarding `O=C(c1ccc(-c2ccccc2)cc1)N1CC(N2CCN(c3ncccn3)C(=O)C2)C1` [Cpd 9, 4-[1-(Biphenyl-4-ylcarbonyl)azetidin-3-yl]-1-pyrimidin-2-ylpiperazin-2-one], the Kd at mutant MGL (setting [3]) is 5.66 µM. The half-inhibitory concentration (IC50) in assay [1] is 7.85 µM.

In the case of `O=C(c1ccc2nc(-c3ccccc3)sc2c1)N1CC(N2CCN(c3nccs3)C(=O)C2)C1` [Cpd 12, 4-{1-[(2-Phenyl-1,3-benzothiazol-6-yl)carbonyl]azetidin-3-yl}-1-(1,3-thiazol-2-yl)piperazin-2-one], on mutant MGL (setting [2]), the Kd stood at 0.994 µM. In assay [1], the half-inhibitory concentration (IC50) turned out to be 0.0986 µM.

Turning to `O=C(c1ccc2nc(-c3ccccc3)sc2c1)N1CC(N2CCN(c3ncccn3)C(=O)C2)C1` [Cpd 10, 4-{1-[(2-Phenyl-1,3-benzothiazol-6-yl)carbonyl]azetidin-3-yl}-1-pyrimidin-2-ylpiperazin-2-one], the Kd at mutant MGL (setting [3]) stood at 10.6 µM. In assay [1], the IC50 was found to be 3.64 µM.

For the compound `O=C(c1sc2cc(C(F)(F)F)ccc2c1Cl)N1CC(N2CCC(=O)N(c3nccs3)CC2)C1` [Cpd 19, 1-(1-{[3-Chloro-6-(trifluoromethyl)-1-benzothiophen-2-yl]carbonyl}azetidin-3-yl)-4-(1,3-thiazol-2-yl)-1,4-diazepan-5-one], at mutant MGL (setting [3]), the Kd was 0.0008 µM. Also, the IC50 in assay [1] was less than 0.005 µM.

In the case of `O=C(c1ccc2nc(-c3ccccc3)oc2c1)N1CC(N2CCC(=O)N(c3nccs3)CC2)C1` [Cpd 22, 1-{1-[(2-Phenyl-1,3-benzoxazol-6-yl)carbonyl]azetidin-3-yl}-4-(1,3-thiazol-2-yl)-1,4-diazepan-5-one], the Kd on mutant MGL (setting [3]) worked out at 0.0025 µM. Besides, the half-maximal inhibitory concentration (IC50) in assay [1] was less than 0.005 µM.

Consider `O=C(c1sc2cc(C(F)(F)F)ccc2c1Cl)N1CC(N2CCN(c3ncccn3)C(=O)C2)C1` [Cpd 8, 4-(1-{[3-Chloro-6-(trifluoromethyl)-1-benzothiophen-2-yl]carbonyl}azetidin-3-yl)-1-pyrimidin-2-ylpiperazin-2-one], for which, on mutant MGL (setting [3]), the Kd worked out at 0.165 µM. Besides, in assay [1], the IC50 is 0.124 µM.

On to `O=C(c1sc2cc(C(F)(F)F)ccc2c1Cl)N1CC(N2CCN(c3ccccc3)C(=O)C2)C1` [Cpd 14, 4-(1-{[3-Chloro-6-(trifluoromethyl)-1-benzothiophen-2-yl]carbonyl}azetidin-3-yl)-1-phenylpiperazin-2-one], for which the Kd on mutant MGL (setting [2]) was 0.495 µM. The concentration for half-maximal inhibition (IC50) in assay [1] worked out at 0.225 µM.

In the case of `O=C(c1ccc2nc(-c3ccccc3)oc2c1)N1CC(N2CCN(c3nccs3)C(=O)C2)C1` [Cpd 16, 4-{1-[(2-Phenyl-1,3-benzoxazol-6-yl)carbonyl]azetidin-3-yl}-1-(1,3-thiazol-2-yl)piperazin-2-one], on mutant MGL (setting [3]), the Kd was determined as 1.38 µM. Also, the IC50 in assay [1] came out at 0.0677 µM.

On to `O=C(c1ccc2c(ccn2-c2ccc(F)cc2)c1)N1CC(N2CCC(=O)N(c3nccs3)CC2)C1` [Cpd 21, 1-(1-{[1-(4-Fluorophenyl)-1H-indol-5-yl]carbonyl}azetidin-3-yl)-4-(1,3-thiazol-2-yl)-1,4-diazepan-5-one], for which the Kd at mutant MGL (setting [3]) came to 0.001 µM. For the same compound, the IC50 in assay [1] is less than 0.005 µM.
